10 compounds from patent US8809395B2, “Methods for making valerenic acid derivatives and their use” (Valericon GmbH, priority 2009, dated 2014) can be followed below.

One experiment deals with c57B1/6N mice. Kind of experiment: Seizure threshold by pentylenetetrazole (PTZ) tail-vein infusion. The format is in vivo. The note with it: for seizure threshold: intraperitoneally, 30 min prior to test. On the procedure: Seizure threshold was determined by pentylenetetrazole (PTZ) tail-vein infusion at a rate of 100 μl/min ([…] PTZ in saline, pH 7.4) on freely moving animals. 30 min prior to test c57B1/6N mice were intraperitoneally injected with either saline (=control group), VA or VA derivatives at the indicated concentrations. […] Animals were immediately anaesthetized using increasing carbon dioxide concentrations and killed by cervical displacement. The seizure threshold dose was calculated from the infused volume in relation to body weight. Results from tail-vein infusion were verified by intraperitoneal injection of a fixed dose of 30 mg PTZ/kg body weight. Animals were observed and video-tracked for 20 min after treatment.

The subject of the next experiment is mice (C57B1/6N). Kind of experiment: Mouse Elevated Plus Maze (EPM) test. The format is in vivo. The note with it: 3 mg/kg BW, injected 30 min prior to testing, assessed over 5 minutes. On the procedure: Male mice (C57B1/6N) were obtained from Charles River Laboratories (Germany). For breeding and maintenance mice were housed in groups with free access to food and water.
Temperature was fixed to 23±1C and 60% humidity with a 12 h light-dark cycle (lights on 0700-1900 hours). Age and testing experience matched male mice at 3-8 months for all experiments. All procedures involving animals were approved by the Austrian Animal Experimentation Ethics Board in compliance with the European convention for the protection of vertebrate animals used for experimental and other scientific purposes ETS no.: 123.
Mice were transferred to the testing facility 24 h before commencement of experiments. Tests were performed between 0900 and 1300 hours. All tests were video monitored and evaluated by an experimenter blinded to the administered compound. […]
Behaviour was tested over 5 minutes on an elevated plus maze (1 meter above ground) consisting of two closed and two open arms, each 50 cm×5 cm in size. […] Analysis of open and closed arm entries and time on open arm was automatically recorded using Video-Mot 2 equipment and software (Wittmann et al., 2008). […]

The target in experiment [1] is T1, GABAA channels composed of α1β3 subunits (Rattus norvegicus, UniProt P62813+P63079).
T1 construct: expressed in transfected cells; host or cells: Xenopus laevis oocytes injected with cRNA transcribed from cDNA in pCMV vector
T1 sequence (P62813 28-455): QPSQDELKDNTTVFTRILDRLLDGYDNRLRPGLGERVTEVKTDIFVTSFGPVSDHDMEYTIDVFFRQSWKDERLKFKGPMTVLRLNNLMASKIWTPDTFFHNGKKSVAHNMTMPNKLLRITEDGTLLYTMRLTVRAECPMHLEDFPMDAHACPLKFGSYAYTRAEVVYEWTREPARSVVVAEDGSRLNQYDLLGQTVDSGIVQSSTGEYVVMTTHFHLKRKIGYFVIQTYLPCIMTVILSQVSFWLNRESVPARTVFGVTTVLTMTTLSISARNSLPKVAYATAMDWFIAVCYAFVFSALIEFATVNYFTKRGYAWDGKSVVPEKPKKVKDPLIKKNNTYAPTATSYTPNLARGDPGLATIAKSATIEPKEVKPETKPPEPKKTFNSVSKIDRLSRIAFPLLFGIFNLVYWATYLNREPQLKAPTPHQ
T1 sequence (P63079 26-473): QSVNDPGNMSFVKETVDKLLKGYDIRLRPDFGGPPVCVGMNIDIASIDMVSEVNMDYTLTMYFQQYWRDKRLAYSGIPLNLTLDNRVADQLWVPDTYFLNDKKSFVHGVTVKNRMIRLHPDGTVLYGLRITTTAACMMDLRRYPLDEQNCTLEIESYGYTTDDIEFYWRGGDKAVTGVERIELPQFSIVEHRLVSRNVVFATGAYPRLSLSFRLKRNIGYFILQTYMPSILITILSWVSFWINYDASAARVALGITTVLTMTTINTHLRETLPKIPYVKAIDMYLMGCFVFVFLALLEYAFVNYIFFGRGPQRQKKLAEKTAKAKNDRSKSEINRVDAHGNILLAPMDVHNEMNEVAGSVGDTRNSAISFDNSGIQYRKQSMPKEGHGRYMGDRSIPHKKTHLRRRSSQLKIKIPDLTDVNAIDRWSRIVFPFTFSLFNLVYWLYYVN
Kind of experiment: Modulation of IGABA, two-microelectrode voltage-clamp on recombinant GABAA receptors expressed in Xenopus laevis oocytes. The format is cell-based. Particulars: for EC50 / Hill-Coefficient (nH): GABA EC3-5; for Emax: GABA EC3-5, read-out: Maximum stimulation of IGABA (EC3-5). On the procedure: Preparation of stage V-VI oocytes from Xenopus laevis and synthesis of capped off run-off poly(A^+) cRNA transcripts from linearized cDNA templates (pCMV vector) were performed as described (Khom et al. 2006). Briefly, female Xenopus laevis (NASCO, USA) were anaesthetised by exposing them for 15 minutes to a 0.2% solution of MS-222 (methane sulfonate salt of 3-aminobenzoic acid ethyl ester; Sandoz) before surgically removing parts of the ovaries. Follicle membranes from isolated oocytes were enzymatically digested with 2 mg/ml collagenase (Type 1A, Sigma). One day after isolation, the oocytes were injected with about 10-50 nl of DEPC-treated water (diethyl pyrocarbonate, Sigma, Germany) containing the different cRNAs at a concentration of approximately 300-3000 pg/nl/subunit. The amount of cRNA was determined by means of a Nanoprop ND-1000 (Kisker-biotech, Steinfurt, Germany).
cRNAs were mixed in a ratio of 1:1 for the expression of α1β3 receptors. Oocytes were stored at 18° C. in ND96 solution (Methfessel et al., 1986). Electrophysiological experiments were done using the two-microelectrode voltage-clamp method at a holding potential of −70 mV making use of a TURBO TEC 01C amplifier (npi electronic, Tamm, Germany) and an Axon Digidata 1322A interface (Molecular Devices, Sunnyvale, Calif.). Data acquisition was carried out using pCLAMP v.9.2. The bath solution contained 90 mM NaCl, 1 mM KCl, 1 mM MgCl2.6H2O, 1 mM CaCl2 and 5 mM HEPES (pH 7.4). Microelectrodes were filled with 2M KCl and had resistances between 1 and 3 MΩ (Khom et al., 2007).
GABA and valerenic acid derivatives, respectively, were applied by means of fast perfusion system (see Baburin et al. 2006 for details; Khom et al. 2006). Drug or control solutions were applied by means of a TECAN Miniprep 60 permitting automation of the experiments. To elicit IGABA the chamber was perfused with 120 μl of GABA-containing solution at a rate of between 300 and 1000 μl/s. The IGABA rise time was in the range of between 100 and 250 ms (see Khom et al. 2006). Care was taken to account for possible slow recovery from increasing levels of desensitization in the presence of high GABA, valerenic acid and derivatives concentrations. Oocytes with maximal current amplitudes >3 μA were discarded to exclude voltage-clamp errors (Khom et al., 2006; Baburin et al., 2006; Khom et al., 2007).
Stimulation of chloride currents by modulators of the GABAA receptor was measured at a GABA concentration eliciting between 3% and 5% of the maximal current amplitude (EC3-5). The EC3-5 was determined at the beginning of each experiment. Enhancement of the chloride current was defined as (I(GABA+Comp)/IGABA)−1, where I(GABA+Comp) is the current response in the presence of a given compound (valerenic acid or derivative) and IGABA is the control GABA current. To measure the sensitivity of the GABAA receptor for a given compound, the compound was applied for an equilibration period of 1 minute before applying GABA (EC3-5). Concentration-response curves were generated and the data were fitted by non-linear regression analysis using Origin software (OriginLab Corporation, USA). Data were fitted to the equation:
[formula] where nH is the Hill coefficient. Each data point represents the mean±S.E. from at least 4 oocytes and 2 oocyte batches. Statistical significance was calculated using the paired Student t-test with a confidence interval of p<0.05 (Khom et al., 2007). 4.2.2. Modulation of IGABA by VA Derivatives
Furthermore, the modulation of IGABA by VA derivatives was investigated at a GABA EC3-5 concentration in a system as outlined under 4.2.1, i.e. on recombinant GABAA receptors expressed in Xenopus laevis oocytes. Thus, modulation of IGABA by VA derivatives was studied on GABAA channels composed of α1β3 subunits.

Compound `CC1=C2[C@H](/C=C(\C)C(=O)O)CC[C@@H](C)[C@H]2CC1` [VA, (E)-3-[(4S,7R,7aR)-3,7-dimethyl-2,4,5,6,7,7a-hexahydro-1H-inden-4-yl]-2-methylprop-2-enoic acid, reference compound] displayed a seizure threshold in the experiment with c57B1/6N mice (3 mg/kg bodyweight) of 47.7±2.7 mg PTZ/kg. Besides, the “seizure threshold (in words)” value in the experiment on c57B1/6N mice (concentrations ≧3 mg/kg bodyweight, vs. saline) is listed as “significantly increased”.

The EC50 is the concentration giving half of the maximal effect. For `CC1=C2[C@H](/C=C(\C)C(N)=O)CC[C@@H](C)[C@H]2CC1` [VA-A, (E)-3-((4S,7R,7aR)-3,7-dimethyl-2,4,5,6,7,7a-hexahydro-1H-inden-4-yl)-2-methylacrylamide], in the experiment with c57B1/6N mice (3 mg/kg bodyweight), the “anticonvulsant effect compared among tested substances” value is “most pronounced” and the seizure threshold worked out at 58.6±3.7 mg PTZ/kg. Moreover, the “time spent in the open arms of the EPM, % of total time in the test” value in the experiment on mice (C57B1/6N) was 52.1±3.9%. Also, in experiment [1], the EC50 amounted to 13.7 ± 2.3 µM and the “Hill-Coefficient (nH)” value is reported as 1.6 ± 0.2.

Take `CCCCNC(=O)/C(C)=C/[C@@H]1CC[C@@H](C)[C@H]2CCC(C)=C12` [VA-BA, (E)-N-butyl-3-((4S,7R,7aR)-3,7-dimethyl-2,4,5,6,7,7a-hexahydro-1H-inden-4-yl)-2-methylacrylamide]: in experiment [1], the EC50 was determined as 18.8 ± 6.9 µM, the “Hill-Coefficient (nH)” value is 1.1 ± 0.2 and the Emax worked out at 569 ± 57%.

Turning to `CCN(CC)C(=O)/C(C)=C/[C@@H]1CC[C@@H](C)[C@H]2CCC(C)=C12` [VA-DEA, (E)-3-((4S,7R,7aR)-3,7-dimethyl-2,4,5,6,7,7a-hexahydro-1H-inden-4-yl)-N,N-diethyl-2-methylacrylamide], the “anticonvulsant effects (in words)” value with c57B1/6N mice (30 mg/kg bodyweight) is “significantly increased”. Further, in experiment [1], the EC50 amounted to 23.7 ± 6.3 µM, the “Hill-Coefficient (nH)” value came out at 1.4 ± 0.1 and the Emax worked out at 901 ± 120%.

Take `CC1=C2[C@H](/C=C(\C)C(=O)N(C)C)CC[C@@H](C)[C@H]2CC1` [VA-DMA, (E)-3-((4S,7R,7aR)-3,7-dimethyl-2,4,5,6,7,7a-hexahydro-1H-inden-4-yl)-N,N,2-trimethylacrylamide]: in experiment [1], the concentration for a half-maximal effect (EC50) was 28.4 ± 7.1 µM and the “Hill-Coefficient (nH)” value came out at 2.1 ± 0.5.

As to `CCNC(=O)/C(C)=C/[C@@H]1CC[C@@H](C)[C@H]2CCC(C)=C12` [VA-EA], the “anticonvulsant effects (in words)” value with c57B1/6N mice (30 mg/kg bodyweight) is reported as “significantly increased”. Also, in experiment [1], the concentration for a half-maximal effect (EC50) turned out to be 23.4 ± 6.9 µM and the “Hill-Coefficient (nH)” value is recorded as 1.3 ± 0.3.

As for `CC1=C2[C@H](/C=C(\C)C(=O)NC(C)C)CC[C@@H](C)[C@H]2CC1` [VA-IPA, (E)-3-((4S,7R,7aR)-3,7-dimethyl-2,4,5,6,7,7a-hexahydro-1H-inden-4-yl)-N-isopropyl-2-methylacrylamide], in experiment [1], the 50% effective concentration (EC50) was found to be 22.5 ± 6 µM, the “Hill-Coefficient (nH)” value stood at 1.5 ± 0.3 and the Emax turned out to be 506 ± 76%.

With `CNC(=O)/C(C)=C/[C@@H]1CC[C@@H](C)[C@H]2CCC(C)=C12` [VA-MA, (E)-3-((4S,7R,7aR)-3,7-dimethyl-2,4,5,6,7,7a-hexahydro-1H-inden-4-yl)-N,2-dimethylacrylamide], in the experiment on c57B1/6N mice (30 mg/kg bodyweight), the “anticonvulsant effect compared among tested substances” value is given as “strongest anticonvulsant effect” and the “anticonvulsant effects (in words)” value is given as “significantly increased”. For the same compound, in experiment [1], the EC50 worked out at 26.3 ± 6.6 µM and the “Hill-Coefficient (nH)” value was 1.4 ± 0.1.

As for `CC1=C2[C@H](/C=C(\C)C(=O)N3CCOCC3)CC[C@@H](C)[C@H]2CC1` [VA-MO, (E)-3-((4S,7R,7aR)-3,7-dimethyl-2,4,5,6,7,7a-hexahydro-1H-inden-4-yl)-2-methyl-1-morpholinoprop-2-en-1-one], in experiment [1], the 50% effective concentration (EC50) came to 64.2 ± 13.8 µM and the “Hill-Coefficient (nH)” value is on record as 1.6 ± 0.2.

In the case of `CC1=C2[C@H](/C=C(\C)C(=O)N3CCCCC3)CC[C@@H](C)[C@H]2CC1` [VA-PIP, (E)-3-((4S,7R,7aR)-3,7-dimethyl-2,4,5,6,7,7a-hexahydro-1H-inden-4-yl)-2-methyl-1-(piperidin-1-yl)prop-2-en-1-one], in experiment [1], the EC50 came to 54.6 ± 17 µM and the “Hill-Coefficient (nH)” value amounted to 1.6 ± 0.3.
